According to patent US20030166922A1, “Novel cephalosporin compounds and process for preparing the same” (priority 2000, published 2003):
In brackets after ≈: the same amount, converted by molar mass. Read-outs that look alike come from different tables or passages of the source.

How the values were obtained:
Assay in all cases: Minimum Inhibitory Concentration (MIC), agar dilution, standard strains
S. aureus K311 = type: cell-based, Staphylococcus aureus; conditions: Table 2; Mueller-Hinton agar, 37° C., 20 hours
Experimental: (§1) Minimum Inhibitory Concentration (MIC)
(§2) The effectiveness of the compound according to the present invention was determined by obtaining Minimum Inhibitory Concentration (MIC) of the compounds prepared by the above Examples (I-1 to I-33) and vancomycin, which is the known compound having a potent activity against gram-positive strains, as the control drug against the standard strains. Specifically, Minimum Inhibitory Concentration was obtained by diluting the test material with a double dilution method, dispersing them in Mueller-Hinton agar medium, inoculating each of the test strain having 10^7 cfu (colny forming unit) in an amount of 2:1 to the medium and then incubating them at 37° C. for 20 hours.

S. aureus 77 = type: cell-based, Staphylococcus aureus; conditions: Mueller-Hinton agar, 37° C., 20 hours; for MIC: Staphylococcus aureus, 77, read-out: Minimum Inhibitory Concentration (MIC), S. aureus 77
Experimental: as §1, §2

S. epidermidis R005 = type: cell-based; conditions: Mueller-Hinton agar, 37° C., 20 hours; for MIC: Staphylococcus epidermidis, R005, read-out: Minimum Inhibitory Concentration (MIC), S. epidermidis R005
Experimental: as §1, §2

[1] = system: Staphylococcus aureus giorgio; type: cell-based; conditions: Mueller-Hinton agar, 37° C., 20 hours; for Minimum Inhibitory Concentration (MIC), S. aureus giorgio: Table 2
Experimental: as §1, §2

E. faecalis EFS004 = type: cell-based; conditions: Table 2; Mueller-Hinton agar, 37° C., 20 hours
Experimental: as §1, §2

S. aureus 241 = type: cell-based, Staphylococcus aureus; conditions: Table 1, Mueller-Hinton agar, 37° C., 20 hours
Experimental: as §1, §2

E. faecalis L239 = type: cell-based; conditions: Table 1, Mueller-Hinton agar, 37° C., 20 hours
Experimental: as §1, §2

## O=C(CSc1cc(Cl)nc(Cl)c1)N[C@@H]1C(=O)N2C(C(=O)O)=C(SCSc3ncnc4[nH]ncc34)CS[C@H]12 [Example I-27, (6R,7R)-7-({2-[(2,6-dichloro-4-pyridinyl)sulfanyl]acetyl}amino)-8-oxo-3-{[(1H-pyrazolo[3,4-d]pyrimidin-4-yl-sulfanyl)methyl]sulfanyl}-5-thia-1-azabicyclo[4.2. 0]oct-2-ene-2-carboxylic acid]
S. aureus K311
  Minimum Inhibitory Concentration (MIC), S. aureus K311: 0.5 :g/ml
S. aureus 77; Table 2
  MIC: 0.25 µg/mL (≈ 0.405 µM)
S. epidermidis R005; Table 2
  MIC: 0.25 µg/mL (≈ 0.405 µM)
[1]
  Minimum Inhibitory Concentration (MIC), S. aureus giorgio: 0.13 :g/ml
E. faecalis EFS004
  Minimum Inhibitory Concentration (MIC), E. faecalis EFS004: 0.5 :g/ml

## O=C(CSc1cc(Cl)nc(Cl)c1)N[C@@H]1C(=O)N2C(C(=O)O)=C(SCSc3nc(O)cc(NCCO)n3)CS[C@H]12 [Example I-32, (6R,7R)-7-({2-[(2,6-dichloro-4-pyridinyl)sulfanyl]acetyl}amino)-3-{[({4-hy-droxy-6-[(2-hydroxyethyl)amino]-2-pyrimidinyl}sulfanyl)methyl]sulfanyl}-8-oxo-5-thia-1-azabicyclo[4. 2.0]oct-2-ene-2-carboxylic acid]
S. aureus K311
  Minimum Inhibitory Concentration (MIC), S. aureus K311: 1 :g/ml
S. aureus 77; Table 2
  Minimum Inhibitory Concentration (MIC), S. aureus 77: 0.1 :g/ml
S. epidermidis R005; Table 2
  Minimum Inhibitory Concentration (MIC), S. epidermidis R005: 1 :g/ml
[1]
  Minimum Inhibitory Concentration (MIC), S. aureus giorgio: 0.13 :g/ml
E. faecalis EFS004
  Minimum Inhibitory Concentration (MIC), E. faecalis EFS004: 1 :g/ml

## C[n+]1c(SCSC2=C(C(=O)O)N3C(=O)[C@@H](NC(=O)CSc4cc(Cl)nc(Cl)c4)[C@H]3SC2)cc(N)nc1N [Example I-33, 2,4-diamino-6-[({[(6R,7R)-2-carboxy-7-({2-[(2,6-dichloro-4-pyridinyl)sulf-anyl]acetyl}amino)-8-oxo-5-thia-1-azabicyclo[4.2.0]oct-2-en-3-yl]sulfanyl}methyl)sulfan-yl]-1-methylp yrimidin-1-ium]
S. aureus K311
  Minimum Inhibitory Concentration (MIC), S. aureus K311: 1 :g/ml
S. aureus 77; Table 2
  Minimum Inhibitory Concentration (MIC), S. aureus 77: 0.25 :g/ml
S. epidermidis R005; Table 2
  Minimum Inhibitory Concentration (MIC), S. epidermidis R005: 0.25 :g/ml
[1]
  Minimum Inhibitory Concentration (MIC), S. aureus giorgio: 0.031 :g/ml
E. faecalis EFS004
  Minimum Inhibitory Concentration (MIC), E. faecalis EFS004: 0.5 :g/ml

## Nc1nc(O)cc(SCSC2=C(C(=O)O)N3C(=O)[C@@H](NC(=O)CSc4cc(Cl)nc(Cl)c4)[C@H]3SC2)n1 [Example I-28, (6R,7R)-3-({[(2-amino-6-hydroxy-4-pyrimidinyl)sulfanyl]methyl}sulfanyl)-7-({2-[(2,6-dic hloro-4-pyridinyl)sulfanyl]acetyl}amino)-8-oxo-5-thia-1-azabicyclo[4.2.0]-oct-2-ene-2-car boxylic acid]
S. aureus K311
  Minimum Inhibitory Concentration (MIC), S. aureus K311: 0.5 :g/ml
S. aureus 77; Table 2
  MIC: 0.25 µg/mL (≈ 0.411 µM)
S. epidermidis R005; Table 2
  MIC: 0.25 µg/mL (≈ 0.411 µM)
[1]
  Minimum Inhibitory Concentration (MIC), S. aureus giorgio: 0.031 :g/ml
E. faecalis EFS004
  Minimum Inhibitory Concentration (MIC), E. faecalis EFS004: 1 :g/ml

## Nc1nc(SCSC2=C(C(=O)O)N3C(=O)[C@@H](NC(=O)CSc4cc(Cl)nc(Cl)c4)[C@H]3SC2)nc2[nH]ncc12 [Example I-26, (6R,7R)-3-({[(4-amino-1H-pyrazolo[3 ,4-d]pyrimidin-6-yl)sulfanyl]methy-1}sulfanyl)-7-({2-[(2,6-dichloro-4-pyridinyl)sulfanyl]acetyl}amino)-8-oxo-5-thia-1-azabi-cyclo[4.2.0]oct-2-ene-2-carboxylic acid]
S. aureus K311
  Minimum Inhibitory Concentration (MIC), S. aureus K311: 0.5 :g/ml
S. aureus 77; Table 2
  Minimum Inhibitory Concentration (MIC), S. aureus 77: 0.25 :g/ml
S. epidermidis R005; Table 2
  Minimum Inhibitory Concentration (MIC), S. epidermidis R005: 0.25 :g/ml
[1]
  Minimum Inhibitory Concentration (MIC), S. aureus giorgio: 0.016 :g/ml
E. faecalis EFS004
  Minimum Inhibitory Concentration (MIC), E. faecalis EFS004: 0.5 :g/ml

## Cn1c(N)n[n+]2c(SCSC3=C(C(=O)O)N4C(=O)[C@@H](NC(=O)CSc5cc(Cl)ccc5Cl)[C@H]4SC3)nc(N)cc12 [Example I-14, (6R,7R)-2,7-diamino-5-[({[2-carboxy-7-({2-[(2,5-dichlorophenyl)sulfany-1]acetyl}amino)-8-oxo-5-thia-1-azabicyclo[4.2.0]oct-2-en-3-yl]sulfanyl}methyl)sulfanyl]-1-methyl-1H,2H, 3H-[1,2,4]triazolo[1,5-c]pyrimidin-4-ium]
S. aureus 77; Table 1
  Minimum Inhibitory Concentration (MIC), S. aureus 77: 0.25 :g/ml
S. aureus 241
  Minimum Inhibitory Concentration (MIC), S. aureus 241: 2 :g/ml
S. epidermidis R005; Table 1
  Minimum Inhibitory Concentration (MIC), S. epidermidis R005: 0.13 :g/ml
[1]; Table 1
  Minimum Inhibitory Concentration (MIC), Staphylococcus aureus giorgio: <0.008 :g/ml
E. faecalis L239
  Minimum Inhibitory Concentration (MIC), E. faecalis L239: 0.13 :g/ml

## Nc1nc(O)cc(SCSC2=C(C(=O)O)N3C(=O)[C@@H](NC(=O)CSc4c(Cl)cccc4Cl)[C@H]3SC2)n1 [Example I-3, (6R,7R)-3-({[(2-amino-6-hydroxy-4-pyrimidinyl)sulfanyl]methyl}sulfanyl)-7-({2-[(2,6-dic hlorophenyl)sulfanyl]acetyl}amino)-8-oxo-5-thia-1-azabicyclo[4.2.0]oct-2-ene-2-carboxylic acid]
S. aureus 77; Table 1
  MIC: 0.25 µg/mL (≈ 0.412 µM)
S. aureus 241; Staphylococcus aureus, 241, read-out: Minimum Inhibitory Concentration (MIC), S. aureus 241
  MIC: 8 µg/mL (≈ 13.2 µM)
S. epidermidis R005; Table 1
  MIC: 0.13 µg/mL (≈ 0.214 µM)
[1]; Staphylococcus aureus, Table 1, read-out: Minimum Inhibitory Concentration (MIC), Staphylococcus aureus giorgio
  MIC: < 0.008 µg/mL
E. faecalis L239; Enterococcus faecalis, L239, read-out: Minimum Inhibitory Concentration (MIC), E. faecalis L239
  MIC: 0.5 µg/mL (≈ 0.824 µM)

## (6R,7R)-2,4-diamino-6-[({[2-carboxy-7-({2-[(2,5-dichlorophenyl)sulfany-1]acetyl}amino)-8-oxo-5-thia-1-azabicyclo[4.2.0]oct-2-en-3-yl]sulfanyl}methyl)sulfanyl]-1-methylpyrimidi n-1-ium [Example I-15]
S. aureus 77; Table 1
  Minimum Inhibitory Concentration (MIC), S. aureus 77: 0.13 :g/ml
S. aureus 241
  Minimum Inhibitory Concentration (MIC), S. aureus 241: 1 :g/ml
S. epidermidis R005; Table 1
  Minimum Inhibitory Concentration (MIC), S. epidermidis R005: 0.13 :g/ml
[1]; Table 1
  Minimum Inhibitory Concentration (MIC), Staphylococcus aureus giorgio: <0.008 :g/ml
E. faecalis L239
  Minimum Inhibitory Concentration (MIC), E. faecalis L239: 0.25 :g/ml

## CNc1[n+](C)c(N)nc(SCSC2=C(C(=O)O)N3C(=O)[C@@H](NC(=O)CSc4cc(Cl)ccc4Cl)[C@H]3SC2)[n+]1N [Example I-19, (6R,7R)-1,4-diamino-6-[({[2-carboxy-7-({2-[(2,5-dichlorophenyl)sulfany-1]acetyl}amino)-8-oxo-5-thia-1-azabicyclo[4.2.0]oct-2-en-3-yl]sulfanyl}methyl)sulfanyl]-3-methyl-2-(methylamino)-1,3,5-triazine-1,3-diium]
S. aureus 77; Table 1
  Minimum Inhibitory Concentration (MIC), S. aureus 77: 4 :g/ml
S. aureus 241
  Minimum Inhibitory Concentration (MIC), S. aureus 241: 32 :g/ml
S. epidermidis R005; Table 1
  Minimum Inhibitory Concentration (MIC), S. epidermidis R005: 2 :g/ml
[1]; Table 1
  Minimum Inhibitory Concentration (MIC), Staphylococcus aureus giorgio: 0.063 :g/ml
E. faecalis L239
  Minimum Inhibitory Concentration (MIC), E. faecalis L239: 4 :g/ml

## (6R,7R)-2,4-diamino-6-[({[2-carboxy-7-({2-[(2,5-dichlorophenyl)sulfany-1]acetyl}amino)-8-oxo-5-thia-1-azabicyclo[4.2.0]oct-2-en-3-yl]sulfanyl}methyl)sulfanyl]-1-ethyl-1,3,5-tria zine-1,3-diium [Example I-20]
S. aureus 77; Table 1
  Minimum Inhibitory Concentration (MIC), S. aureus 77: 1 :g/ml
S. aureus 241
  Minimum Inhibitory Concentration (MIC), S. aureus 241: 8 :g/ml
S. epidermidis R005; Table 1
  Minimum Inhibitory Concentration (MIC), S. epidermidis R005: 0.5 :g/ml
[1]; Table 1
  Minimum Inhibitory Concentration (MIC), Staphylococcus aureus giorgio: <0.008 :g/ml
E. faecalis L239
  Minimum Inhibitory Concentration (MIC), E. faecalis L239: 0.5 :g/ml

## Nc1cc[n+](N)c(SCSC2=C(C(=O)O)N3C(=O)[C@@H](NC(=O)CSc4cc(Cl)ccc4Cl)[C@H]3SC2)n1 [Example I-7, 1,4-diamino-2-[({[(6R,7R)-2-carboxy-7-({2-[(2,5-dichlorophenyl)sulfanyl]ac-etyl}amino)-8-oxo-5-thia-1-azabicyclo[4.2.0]oct-2-en-3-yl)sulfanyl}methyl)sulfanyl]pyri-midin-1-ium]
S. aureus 77; Table 1
  Minimum Inhibitory Concentration (MIC), S. aureus 77: 0.13 :g/ml
S. aureus 241
  Minimum Inhibitory Concentration (MIC), S. aureus 241: 2 :g/ml
S. epidermidis R005; Table 1
  Minimum Inhibitory Concentration (MIC), S. epidermidis R005: 0.063 :g/ml
[1]; Table 1
  Minimum Inhibitory Concentration (MIC), Staphylococcus aureus giorgio: <0.008 :g/ml
E. faecalis L239
  Minimum Inhibitory Concentration (MIC), E. faecalis L239: 0.13 :g/ml

## Nc1nc(SCSC2=C(C(=O)O)N3C(=O)[C@@H](NC(=O)CSc4cc(Cl)ccc4Cl)[C@H]3SC2)c2c([n+]1N)CCC2 [Example I-11, (6R,7R)-1 ,2-diamino-4-[({(E)-3-[2-carboxy-7-({2-[(2,5-dichlorophenyl)sulf-anyl]acetyl}amino)-8-oxo-5-thia-1-azabicyclo[4.2.0]oct-2-en-3-yl]sulfanyl}methyl)sulfan-yl]-6,7-dihyd ro-5H-cyclopenta[d]pyrimidin-1-ium]
S. aureus 77; Table 1
  Minimum Inhibitory Concentration (MIC), S. aureus 77: 0.063 :g/ml
S. aureus 241
  Minimum Inhibitory Concentration (MIC), S. aureus 241: 1 :g/ml
S. epidermidis R005; Table 1
  Minimum Inhibitory Concentration (MIC), S. epidermidis R005: 0.063 :g/ml
[1]; Table 1
  Minimum Inhibitory Concentration (MIC), Staphylococcus aureus giorgio: <0.008 :g/ml
E. faecalis L239
  Minimum Inhibitory Concentration (MIC), E. faecalis L239: 0.25 :g/ml
